Results as given in US5714576A, “Linear analogs of alpha-msh fragments” (Competitive Technologies, Inc., priority 1997, dated 1998).
Read-outs that look alike come from different tables or passages of the source. Positions of bridges follow the written chain, without caps; N, C: chain ends. Non-standard residues stand in square brackets, D forms with d. Residues, ends and D or L forms follow the SMILES beside them. Nle = CCCC[C@H](N)C(=O)O; Dab = NCC[C@H](N)C(=O)O

What was measured:
[1] = tested on: Lizard (Anolis carolinensis) Skin; type: cell-based; details: for Residual Activity Lizard (prolonged action): linear analogues
Experimental: (§1) The biological potencies of alpha-MSH, the linear and cyclic analogues were determined by their ability to stimulate melanosome dispersion in vitro in the frog and lizard bioassays. This in vitro assay provides clear cut dose response curves (between 2.5×10^-11 and 4×10^-10 M) and can detect minimal concentration of alpha-MSH of about 10^-11 M. The assay is based upon the centrifugal dispersion of melanosomes (melanin granules) within the dendritic processes of integumental dermal melanophores leading to darkening of the skin. All the test solutions were prepared via serial dilutions from a stock solution (10^-4 M). The frogs (Rana pipiens) used in these evaluations were obtained from Kons Scientific, Germantown, Wis., and the lizards (Anolis carolinensis) were from the Snake Farm, La Place, La.

Frog (Rana pipiens) Skin = type: cell-based
Experimental: as §1

[2] = cyclic analogues, alpha-MSH = 1.0

## CCCC[C@H](NC(=O)[C@H](CO)NC(=O)[C@H](Cc1ccc(O)cc1)NC(=O)[C@H](CO)NC(C)=O)C(=O)N[C@@H](CCC(=O)O)C(=O)N[C@@H](Cc1c[nH]cn1)C(=O)N[C@H](Cc1ccccc1)C(=O)N[C@@H](CCCNC(=N)N)C(=O)N[C@@H](Cc1c[nH]c2ccccc12)C(=O)N[C@@H](CCCCN)C(=O)NCC(=O)N1CCC[C@H]1C(=O)N[C@H](C(N)=O)C(C)C [Analogue 1] (Ac-SYS[Nle]EH[dF]RWKGPV-NH2)
[1]
  Biological Potency Lizard: 8.0
  Residual Activity Lizard (prolonged action): P(-)
Frog (Rana pipiens) Skin
  Biological Potency Frog: 6.0
Frog (Rana pipiens) Skin; linear analogues
  Residual Activity Frog (prolonged action): P(+)

## CCCC[C@H](NC(=O)[C@H](CO)NC(=O)[C@H](Cc1ccc(O)cc1)NC(=O)[C@H](CO)NC(C)=O)C(=O)N[C@@H](CC(=O)O)C(=O)N[C@@H](Cc1c[nH]cn1)C(=O)N[C@H](Cc1ccccc1)C(=O)N[C@@H](CCCNC(=N)N)C(=O)N[C@@H](Cc1c[nH]c2ccccc12)C(=O)N[C@@H](CCCCN)C(=O)NCC(=O)N1CCC[C@H]1C(=O)N[C@H](C(N)=O)C(C)C [Analogue 2] (Ac-SYS[Nle]DH[dF]RWKGPV-NH2)
[1]
  Biological Potency Lizard: 8.0
  Residual Activity Lizard (prolonged action): P(-)
Frog (Rana pipiens) Skin
  Biological Potency Frog: 9.0
Frog (Rana pipiens) Skin; linear analogues
  Residual Activity Frog (prolonged action): P(+)

## CCCC[C@H](NC(C)=O)C(=O)N[C@@H](CCC(=O)O)C(=O)N[C@@H](Cc1c[nH]cn1)C(=O)N[C@H](Cc1ccccc1)C(=O)N[C@@H](CCCNC(=N)N)C(=O)N[C@@H](Cc1c[nH]c2ccccc12)C(=O)N[C@@H](CCCCN)C(=O)NCC(=O)N1CCC[C@H]1C(=O)N[C@H](C(N)=O)C(C)C [Analogue 3] (Ac-[Nle]EH[dF]RWKGPV-NH2)
[1]
  Biological Potency Lizard: 8.0
  Residual Activity Lizard (prolonged action): P(+)
Frog (Rana pipiens) Skin
  Biological Potency Frog: 0.8
Frog (Rana pipiens) Skin; linear analogues
  Residual Activity Frog (prolonged action): P(+)

## CCCC[C@H](NC(C)=O)C(=O)N[C@@H](CC(=O)O)C(=O)N[C@@H](Cc1c[nH]cn1)C(=O)N[C@H](Cc1ccccc1)C(=O)N[C@@H](CCCNC(=N)N)C(=O)N[C@@H](Cc1c[nH]c2ccccc12)C(=O)N[C@@H](CCCCN)C(=O)NCC(=O)N1CCC[C@H]1C(=O)N[C@H](C(N)=O)C(C)C [Analogue 4] (Ac-[Nle]DH[dF]RWKGPV-NH2)
[1]
  Biological Potency Lizard: 10.0
  Residual Activity Lizard (prolonged action): P(+)
Frog (Rana pipiens) Skin
  Biological Potency Frog: 1.0
Frog (Rana pipiens) Skin; linear analogues
  Residual Activity Frog (prolonged action): P(+)

## CCCC[C@H](NC(C)=O)C(=O)N[C@@H](CC(=O)O)C(=O)N[C@@H](Cc1c[nH]cn1)C(=O)N[C@H](Cc1ccccc1)C(=O)N[C@@H](CCCNC(=N)N)C(=O)N[C@@H](Cc1c[nH]c2ccccc12)C(=O)NCC(N)=O [Analogue 5]
[1]
  Biological Potency Lizard: 8.0
  Residual Activity Lizard (prolonged action): P(-)
Frog (Rana pipiens) Skin
  Biological Potency Frog: 0.1
Frog (Rana pipiens) Skin; linear analogues
  Residual Activity Frog (prolonged action): P(-)

## CCCC[C@H](NC(C)=O)C(=O)N[C@@H](CCC(=O)O)C(=O)N[C@@H](Cc1c[nH]cn1)C(=O)N[C@H](Cc1ccccc1)C(=O)N[C@@H](CCCNC(=N)N)C(=O)N[C@@H](Cc1c[nH]c2ccccc12)C(=O)N[C@@H](CCCCN)C(N)=O [Analogue 6]
[1]
  Biological Potency Lizard: 8.0
  Residual Activity Lizard (prolonged action): P(-)
Frog (Rana pipiens) Skin
  Biological Potency Frog: 0.2
Frog (Rana pipiens) Skin; linear analogues
  Residual Activity Frog (prolonged action): P(-)

## CCCC[C@H](NC(C)=O)C(=O)N[C@@H](CC(=O)O)C(=O)N[C@@H](Cc1c[nH]cn1)C(=O)N[C@H](Cc1ccccc1)C(=O)N[C@@H](CCCNC(=N)N)C(=O)N[C@@H](Cc1c[nH]c2ccccc12)C(=O)N[C@@H](CCCCN)C(N)=O [Analogue 7]
[1]
  Biological Potency Lizard: 8.0
  Residual Activity Lizard (prolonged action): P(-)

## CCCC[C@H](NC(C)=O)C(=O)N[C@@H](CCC(=O)O)C(=O)N[C@@H](Cc1c[nH]cn1)C(=O)N[C@H](Cc1ccccc1)C(=O)N[C@@H](CCCNC(=N)N)C(=O)N[C@@H](Cc1c[nH]c2ccccc12)C(=O)N[C@@H](CCCN)C(N)=O [Analogue 8]
[1]
  Biological Potency Lizard: 8.0
  Residual Activity Lizard (prolonged action): P(-)
Frog (Rana pipiens) Skin
  Biological Potency Frog: 0.6
Frog (Rana pipiens) Skin; linear analogues
  Residual Activity Frog (prolonged action): P(-)

## CCCC[C@H](NC(C)=O)C(=O)N[C@@H](CC(=O)O)C(=O)N[C@@H](Cc1c[nH]cn1)C(=O)N[C@H](Cc1ccccc1)C(=O)N[C@@H](CCCNC(=N)N)C(=O)N[C@@H](Cc1c[nH]c2ccccc12)C(=O)N[C@@H](CCCN)C(N)=O [Analogue 9]
[1]
  Biological Potency Lizard: 10.0
  Residual Activity Lizard (prolonged action): P(-)
Frog (Rana pipiens) Skin
  Biological Potency Frog: 0.9

## CCCC[C@H](NC(C)=O)C(=O)N[C@@H](CCC(=O)O)C(=O)N[C@@H](Cc1c[nH]cn1)C(=O)N[C@H](Cc1ccccc1)C(=O)N[C@@H](CCCNC(=N)N)C(=O)N[C@@H](Cc1c[nH]c2ccccc12)C(=O)N[C@@H](CCN)C(N)=O [Analogue 10] (Ac-[Nle]EH[dF]RW[Dab]-NH2)
[1]
  Biological Potency Lizard: 10.0
  Residual Activity Lizard (prolonged action): P(±)
Frog (Rana pipiens) Skin
  Biological Potency Frog: 0.9
Frog (Rana pipiens) Skin; linear analogues
  Residual Activity Frog (prolonged action): P(±)

## CCCC[C@H](NC(C)=O)C(=O)N[C@@H](CC(=O)O)C(=O)N[C@@H](Cc1c[nH]cn1)C(=O)N[C@H](Cc1ccccc1)C(=O)N[C@@H](CCCNC(=N)N)C(=O)N[C@@H](Cc1c[nH]c2ccccc12)C(=O)N[C@@H](CCN)C(N)=O [Analogue 11]
[1]
  Biological Potency Lizard: 50.0
  Residual Activity Lizard (prolonged action): P(-)
Frog (Rana pipiens) Skin
  Biological Potency Frog: 0.9
Frog (Rana pipiens) Skin; linear analogues
  Residual Activity Frog (prolonged action): P(-)

## CCCC[C@H](NC(C)=O)C(=O)N[C@@H](CC(=O)O)C(=O)N[C@@H](Cc1c[nH]cn1)C(=O)N[C@H](Cc1ccccc1)C(=O)N[C@@H](CCCNC(=N)N)C(=O)N[C@@H](Cc1c[nH]c2ccccc12)C(=O)N[C@@H](CN)C(N)=O [Analogue 12]
[1]
  Biological Potency Lizard: 8.0
  Residual Activity Lizard (prolonged action): P(-)
Frog (Rana pipiens) Skin
  Biological Potency Frog: 0.2
Frog (Rana pipiens) Skin; linear analogues
  Residual Activity Frog (prolonged action): P(-)

## CCCC[C@H](NC(C)=O)C(=O)N[C@@H](CC(=O)O)C(=O)N[C@@H](Cc1c[nH]cn1)C(=O)N[C@@H](Cc1ccccc1)C(=O)N[C@@H](CCCNC(=N)N)C(=O)N[C@@H](Cc1c[nH]c2ccccc12)C(=O)N[C@@H](CCCCN)C(N)=O [Analogue 14]
[1]
  Biological Potency Lizard: 0.08
  Residual Activity Lizard (prolonged action): P(-)

## CCCC[C@H](NC(=O)[C@H](CO)NC(=O)[C@H](Cc1ccc(O)cc1)NC(=O)[C@H](CO)NC(C)=O)C(=O)N[C@H]1CC(=O)NCCCC[C@@H](C(=O)NCC(=O)N2CCC[C@H]2C(=O)N[C@H](C(N)=O)C(C)C)NC(=O)[C@H](Cc2c[nH]c3ccccc23)NC(=O)[C@H](CCCNC(=N)N)NC(=O)[C@@H](Cc2ccccc2)NC(=O)[C@H](Cc2c[nH]cn2)NC1=O [Analogue 21] (Ac-SYS[Nle]DH[dF]RWKGPV-NH2; lactam 5-10)
Frog (Rana pipiens) Skin; cyclic analogues
  Residual Activity Frog (prolonged action): p(+)
Frog (Rana pipiens) Skin; [2]
  Biological Potency Frog: 8.0

## CCCC[C@H](NC(=O)[C@H](CO)NC(=O)[C@H](Cc1ccc(O)cc1)NC(=O)[C@H](CO)NC(C)=O)C(=O)N[C@H]1CC(=O)NCCCC[C@@H](C(N)=O)NC(=O)[C@H](Cc2c[nH]c3ccccc23)NC(=O)[C@H](CCCNC(=N)N)NC(=O)[C@@H](Cc2ccccc2)NC(=O)[C@H](Cc2c[nH]cn2)NC1=O [Analogue 22] (Ac-SYS[Nle]DH[dF]RWK-NH2; lactam 5-10)
Frog (Rana pipiens) Skin; cyclic analogues
  Residual Activity Frog (prolonged action): p(+)
Frog (Rana pipiens) Skin; [2]
  Biological Potency Frog: 2.0

## CCCC[C@H](NC(=O)[C@H](CO)NC(=O)[C@H](Cc1ccc(O)cc1)NC(C)=O)C(=O)N[C@H]1CC(=O)NCCCC[C@@H](C(N)=O)NC(=O)[C@H](Cc2c[nH]c3ccccc23)NC(=O)[C@H](CCCNC(=N)N)NC(=O)[C@@H](Cc2ccccc2)NC(=O)[C@H](Cc2c[nH]cn2)NC1=O [Analogue 23] (Ac-YS[Nle]DH[dF]RWK-NH2; lactam 4-9)
Frog (Rana pipiens) Skin; cyclic analogues
  Residual Activity Frog (prolonged action): p(+)
Frog (Rana pipiens) Skin; [2]
  Biological Potency Frog: 0.7

## CCCC[C@H](NC(=O)[C@H](CO)NC(C)=O)C(=O)N[C@H]1CC(=O)NCCCC[C@@H](C(N)=O)NC(=O)[C@H](Cc2c[nH]c3ccccc23)NC(=O)[C@H](CCCNC(=N)N)NC(=O)[C@@H](Cc2ccccc2)NC(=O)[C@H](Cc2c[nH]cn2)NC1=O [Analogue 24] (Ac-S[Nle]DH[dF]RWK-NH2; lactam 3-8)
Frog (Rana pipiens) Skin; cyclic analogues
  Residual Activity Frog (prolonged action): p(+)
Frog (Rana pipiens) Skin; [2]
  Biological Potency Frog: 1.0

## CCCC[C@H](NC(C)=O)C(=O)N[C@H]1CC(=O)NCCCC[C@@H](C(=O)NCC(N)=O)NC(=O)[C@H](Cc2c[nH]c3ccccc23)NC(=O)[C@H](CCCNC(=N)N)NC(=O)[C@@H](Cc2ccccc2)NC(=O)[C@H](Cc2c[nH]cn2)NC1=O [Analogue 26] (Ac-[Nle]DH[dF]RWKG-NH2; lactam 2-7)
Frog (Rana pipiens) Skin; cyclic analogues
  Residual Activity Frog (prolonged action): p(+)
Frog (Rana pipiens) Skin; [2]
  Biological Potency Frog: 5.5

## CCCC[C@H](NC(C)=O)C(=O)N[C@H]1CC(=O)NCCCC[C@@H](C(=O)NCC(=O)N2CCC[C@H]2C(N)=O)NC(=O)[C@H](Cc2c[nH]c3ccccc23)NC(=O)[C@H](CCCNC(=N)N)NC(=O)[C@@H](Cc2ccccc2)NC(=O)[C@H](Cc2c[nH]cn2)NC1=O [Analogue 27] (Ac-[Nle]DH[dF]RWKGP-NH2; lactam 2-7)
Frog (Rana pipiens) Skin; cyclic analogues
  Residual Activity Frog (prolonged action): p(+)
Frog (Rana pipiens) Skin; [2]
  Biological Potency Frog: 4.0

## CCCC[C@H](NC(C)=O)C(=O)N[C@H]1CC(=O)NCCCC[C@@H](C(=O)NCC(=O)N2CCC[C@H]2C(=O)N[C@H](C(N)=O)C(C)C)NC(=O)[C@H](Cc2c[nH]c3ccccc23)NC(=O)[C@H](CCCNC(=N)N)NC(=O)[C@@H](Cc2ccccc2)NC(=O)[C@H](Cc2c[nH]cn2)NC1=O [Analogue 28] (Ac-[Nle]DH[dF]RWKGPV-NH2; lactam 2-7)
Frog (Rana pipiens) Skin; cyclic analogues
  Residual Activity Frog (prolonged action): p(+)
Frog (Rana pipiens) Skin; [2]
  Biological Potency Frog: 2.0

## CCCC[C@H](NC(=O)[C@H](CO)NC(C)=O)C(=O)N[C@H]1CC(=O)NCCCC[C@@H](C(=O)NCC(=O)N2CCC[C@H]2C(=O)N[C@H](C(N)=O)C(C)C)NC(=O)[C@H](Cc2c[nH]c3ccccc23)NC(=O)[C@H](CCCNC(=N)N)NC(=O)[C@@H](Cc2ccccc2)NC(=O)[C@H](Cc2c[nH]cn2)NC1=O [Analogue 29] (Ac-S[Nle]DH[dF]RWKGPV-NH2; lactam 3-8)
Frog (Rana pipiens) Skin; cyclic analogues
  Residual Activity Frog (prolonged action): p(+)
Frog (Rana pipiens) Skin; [2]
  Biological Potency Frog: 9.0
